# Reference: patent US20230028293A1, “MULTIPLE MYELOMA COMBINATION THERAPIES BASED ON PROTEIN TRANSLATION INHIBITORS AND IMMUNOMODULATORS” (The Regents of the University of Colorado, a body corporate, priority 2019, published 2023)
# pEC50: −log10 of the molar value.
# Tests used:
# [1] = system: luc-MM1.S cells in NSG mice; assay: In vivo protein translation (puromycin incorporation) in luc-MM1.S xenograft; conditions: 1, 2 or 3 mg/kg IP; greatest effect at 3 mg/kg
# Method: To extend the findings to an in vivo model, the effects of omacetaxine were examined using a firefly luciferase-expressing myeloma cell line, MM1.S (luc-MM1.S) to generate xenografts in NSG mice. The pharmacodynamics of omacetaxine were studied in this model. Mice were injected with luc-MM1.S cells and allowed to establish disease, followed by treatment with 1, 2, or 3 mg/kg omacetaxine, or with the vehicle control by intraperitoneal (IP) injection, followed by puromycin injection one hour later, and sacrificed 1.5 hours later, with bone marrow harvest and […] incorporation by flow cytometry (FIG. 9A).
# Protein synthesis levels were determined in vitro utilizing the puromycin analog O-propargyl-puromycin (OP-Puro) in the protein synthesis assay kit (Cayman Chemical) according to manufacturer instructions. […]
# For in vivo assessment of omacetaxine, 5×10^5 MM1.S cells stably expressing firefly luciferase were injected intravenously into NSG mice (Jackson Labs, Bar Harbor, Me.) to generate an orthometastatic MM xenograft model. […] Tumor status was assessed by BLI, and the results were analyzed by Living Image (PerkinElmer). Following treatment, the mice were continuously monitored for survival endpoints.
# [2] = system: primary MM cells from patient bone marrow aspirates; assay: cells
# Method: The effect of omacetaxine in primary patient samples was tested by incubating marrow mononuclear cells (MNCs) from patient bone marrow aspirates for 48 h and measuring the number of surviving MM cells by multiparameter flow cytometry.
# De-identified primary myeloma samples were thawed in a 37° C. water bath and then incubated with 100 μg DNase I (Sigma-Aldrich) for 90 sec. Samples were washed twice with 10 mL Dulbecco's Phosphate Buffered Saline without calcium and magnesium (DPBS). Cells were cultured in RPMI1640 medium containing L-glutamine with 10% FBS and 100 U/mL penicillin, 100 ug/mL streptomycin (Thermo Fisher Scientific), and 2 ng/mL interleukin 6 IL-6 (PreproTech) at 37° C. for 2 h. Cells were then transferred to 96-well plates at […] cells/mL (90,000 MNCs per well) and treated for 48 h. Stock solutions of drug were prepared at 10 mM in dimethylsulfoxide (DMSO) and stored at −20° C. until use.
# After 48 h treatment, the primary samples were washed in 1× cold DPBS and re-suspended in BD Brilliant Stain Buffer (BD Biosciences, San Jose Calif.) in a 96-well V-bottom plate. Cells were treated with FcR Blocking Reagent (Miltenyi Biotec, San Diego Calif.) for 5 min and then surface stained with anti-CD19-BV786 anti-CD45-BV510, anti-CD38-PerCP-Cy5.5, anti-CD138-BV421, and anti-CD319-Alexa647 or anti-CD46-Alexa647 antibodies for 10 min on ice. Intracellular staining with anti-kappa-BV605 and anti-lambda-PE light chains was performed after paraformaldehyde fixation and permeabilization. All flow cytometry antibodies were purchased from BD Biosciences. After staining, samples were washed and resuspended with 100 μl DPBS containing 2% FBS (FACS buffer). Viability staining was done using the LIVE/DEAD Fixable Near-IR Dead Cell Stain Kit (Invitrogen, Carlsbad Calif.) by adding 1 μl of 10-fold diluted stain to each well. Flow cytometry data was collected using a BD FACSCelesta Multicolor Cell Analyzer (BD Biosciences, San Jose Calif.) equipped with a HTS. For each sample a fixed volume of 175 μL was collected by the HTS. Flow cytometry data analysis was completed using FlowJo software (FlowJo LLC, Ashland Oreg.). Myeloma populations were analyzed by gating CD19− CD45+/−CD38+ CD138+ based on the cells expressing clonal light chain restriction in each sample.
# MCL1 = assay: Quantitative intracellular flow cytometry of MCL1; format: cell-based; conditions: 50 nM, 6 h
# Method: (§1) Quantitative flow cytometry was used to measure MCL1 and BCL2 densities per cell. Anti-MCL1 and anti-BCL2 antibodies were labeled with Alexa Fluor 647 (Molecular Probes/life Technologies) according to manufacturer's instructions. Intracellular staining of MCL1 and BCL2 was conducted following permeabilization with the Cytofix/Cytoperm kit (BD). Mean fluorescence intensity was converted to molecules of equivalent soluble fluorochrome (MESF) by generating a standard curve with Quantum™ beads (Bangs Labs, Fishers, Ind.). The fluorophore-to-antibody ratio of the labeled antibodies was determined using Simply Cellular® anti-mouse IgG beads (Bangs Labs). Finally, conversion of MESF to cell surface antigen density was calculated by dividing by the fluorophore-to-antibody ratio.
# [3] = system: protein translation in MM cell lines and primary MM cells; assay: OP-Puro protein translation assay in vitro; format: cell-based
# Method: To examine whether myeloma cells depend on inherently high protein synthesis, the O-Propargyl-puromycin (OP-Puro) assay was used to measure the rate of amino-acid incorporation into translating ribosomes by flow cytometry.
# Protein synthesis levels were determined in vitro utilizing the puromycin analog O-propargyl-puromycin (OP-Puro) in the protein synthesis assay kit (Cayman Chemical) according to manufacturer instructions. For in vivo protein synthesis, engrafted NSG mice were injected IP with 500 μg puromycin (Gibco), then euthanized after 1.5 h, marrow was flushed, and cells stained with anti-puromycin antibody (12D10, Alexa-488, Millipore Sigma), followed by flow cytometry.
# MM cell lines = assay: Two-drug combination matrix in MM cell lines, ZIP synergy; format: cell-based
# Method: In this example, possible candidates for use in combination with omacetaxine were examined, focusing on those that are currently clinically available. Omacetaxine was applies in combination with various anti-myeloma agents to MM cell lines Amo-1, L363, and U266 in two-drug combination matrices, with cell viability being measured after 96 h incubation. […] The […] for synergy of omacetaxine with Len and Pom were 13.89 and 11.24, respectively, with a broad range of concentrations showing a productive interaction (FIGS. 6B and 6D).
# Either CellTiter-Glo Luminescent Cell Viability or CellTiter 96 AQueous MTS Cell Proliferation assay (Promega, Madison Wis.) were used to generate dose response curves of myeloma cell line proliferation treated with various anti-myeloma agents. Working solutions of CellTiter-Glo or CellTiter AQueous reagent were prepared per manufacturer instructions. Cells were combined with drug of interest at a concentration of 50,000 cells/well and incubated in 96-well culture plates at 37° C. for 96 h. After the incubation, the viability or proliferation results were obtained via Vmax Kinetic Microplate Reader (Molecular Devices, Sunnyvale Calif.). Cell line toxicity was also measured using high throughput flow cytometry.
# Drug combination studies were set up using a full matrix design with myeloma cell lines or primary samples. Synergy was calculated using ZIP delta score via the SnergyFinder online tool (synergyfinder.fimm.fi). Combination index values were calculated using the CompuSyn software (ComboSyn Inc).
# BCL2 = assay: Quantitative intracellular flow cytometry of BCL2; format: cell-based; conditions: 50 nM, 6 h
# Method: as §1
smiles,measurement,setting,value
"COC(=O)C[C@](O)(CCCC(C)(C)O)C(=O)O[C@@H]1C(OC)=C[C@]23CCCN2CCc2cc4c(cc2[C@H]13)OCO4 [omacetaxine, Omacetaxine mepesuccinate]",protein translation rate in luc-MM1.S cells in vivo,[1],dose-dependent decrease
same,cytotoxicity in relation to MCL1 priming (BH3 profiling) of primary samples,[2],potent anti-myeloma activity in samples that were not MCL1 primed
same,patient samples with >50% reduction in viable MM cells (39/50),"[2]; 50 nM, 48 h, 50 patient samples",78%
same,cross-resistance in relapsed/refractory patients resistant to PI and IMiDs,"[2]; 50 nM, 48 h ex vivo",did not show cross-resistance
same,pEC50,"[2]; Homo sapiens, 48 h, read-out: EC50 of decrease in MM cell viability ex vivo",7.00 to 7.60
same,MCL1 expression in myeloma cells,MCL1,rapidly downregulated
same,translation in primary MM samples after treatment,"[3]; 50 nM, 2.5 h, 14 primary samples, to near MNC levels",significantly reduced
same,pEC50,"[3]; Homo sapiens, NCI-H929, 2.5 h, H929 MM cell line and primary patient MM cells, read-out: EC50 of inhibition of protein translation",8.05
same,ability to inhibit translation in myeloma cell lines,"[3]; omacetaxine 50 nM 2.5 h, bortezomib 6 h, 24 h, 48 h",observed across all myeloma cell lines tested
same,combination with dexamethasone versus single agent omacetaxine,MM cell lines; L363 and U266 cells,decreased activity
same,synergy with lenalidomide (cell viability),"MM cell lines; combination with Len, 96 h",synergistic in all cell lines tested
same,synergy with pomalidomide (cell viability),"MM cell lines; omacetaxine combined with Pom, 96 h",synergistic in all cell lines tested
same,"synergy with dexamethasone, over cell lines tested",MM cell lines; three MM cell lines,synergistic in only ⅓ MM cell lines tested
same,Bcl-2 level in myeloma cells,BCL2,does not decrease
